{"source": "patent US11149047B2", "about": "“Aryl imidazoles for treatment of cancer” (Aptose Biosciences Inc., priority 2017, dated 2021)", "key": {"[1]": {"test_system": "MCF10A BRCA1-het #1 and #2 clones vs control", "experiment": "Sensitivity of BRCA1-proficient and -deficient isogenic clones", "format": "cell-based, human", "conditions": "FIG. 3A", "method": "(§1) Cells were plated and treated with the indicated drugs in 96-well plates for 5 days. Cell viability was measured using CellTiter 96 AQueous one solution (MTS) cell proliferation assay purchased from Promega, and IC50 values were calculated using GraphPad Prism 6 Software.\n(§2) The finding that COMPOUND I produced DNA damage led to the investigation of whether cells deficient in homologous recombination were hypersensitive to this drug. The hypothesis that there would be synthetic lethality between COMPOUND I and BRCA1 deficiency using isogenic pairs of BRCA1-proficient and -deficient human cell lines was tested. […] The conclusion that BRCA1-deficient cells are hypersensitive to COMPOUND I was further supported by the results obtained in MCF7 E7 cells in which BRCA1 expression is stably knocked down by the expression of an shRNAi. […] Whether BRCA2-deficient cells are more sensitive to COMPOUND I was tested using the BRCA2-proficient and BRCA2-deficient ovarian cancer cell lines, PEO4 and PEO1, respectively. PEO1 is BRCA2-deficient and sensitive to cisplatin and a poly(ADP-ribose) polymerase inhibitor AG14361. PEO4 was derived from ascites at the time of relapse with cisplatin resistance and contains a secondary mutation that restores BRCA2 function. […] Thus, loss of either BRCA1 or BRCA2 function renders malignant cells hypersensitive to COMPOUND I."}, "[2]": {"test_system": "hTERT-IMEC BRCA1 knock-in clone", "experiment": "Sensitivity of BRCA1-proficient and -deficient isogenic clones", "format": "cell-based, human", "conditions": "FIG. 3B", "method": "as §1, §2"}, "[3]": {"test_system": "BIK, BAD, MCL-1 in Raji/COMPOUND IR cells", "experiment": "Western blot of proteins involved in apoptosis", "format": "cell-based, human", "excerpt": "In order to delineate which effects of COMPOUND I are most closely linked to sensitivity for this drug, a subline of the Raji Burkitt's lymphoma cell line that had acquired resistance (Raji/COMPOUND IR) as a result of repeated exposure to progressively higher concentrations of COMPOUND I over a period of 6 months was developed. Resistance evolved slowly and progressively without an abrupt change at any point during the selection process. […] This is in the same range as has been reported for freshly isolated AML blasts and CLL cells. Zhang et al., “Inhibition of c-Myc by ATPO-COMPOUND I as an Innovative Therapeutic Approach to Induce Cell Cycle Arrest and Apoptosis in Acute Myeloid Leukemia [abstract],” Blood 2016; 128:1716; Kurtz et al., “Broad Activity of COMPOUND I in AML and other Hematologic Malignancies Correlates with KFL4 Expression Level [abstract],” Blood 2015; 126:1358, both of which are hereby incorporated by reference. […] The level of resistance remained stable for at least 3 months during culture in drug-free media (FIG. 4A). Raji/COMPOUND IR cells grew slightly faster than the parental cells but the difference was not statistically significant."}, "[4]": {"test_system": "MYC in AML cell lines", "experiment": "MYC mRNA (qRT-PCR) and protein (Western blot) levels", "format": "cell-based", "conditions": "all AML cell lines tested, 24 hours", "method": "Cells were treated with vehicle or COMPOUND I at various concentrations for 24 hours or at a single concentration for 1, 3, 6, 12, and 24 hours before harvesting. Cells were lysed by QiaShredder columns (QIAGEN, catalog #79656), total RNA was isolated using QIAGEN RNeasy Plus Mini Kit (catalog #74134), and cDNA was synthesized utilizing Transcriptor Universal cDNA master mix (Roche, catalog #05893151001) and then used for qRT-PCR analysis using FastStart essential DNA probes master mix (Roche, catalog #06402682001) and Roche LightCycler96. Primer probe pairs were purchased from IDT (Table 5). Expression was calculated as fold change over vehicle treated samples after normalizing to GAPDH […].\nCells were treated as described above. Whole-cell lysates were prepared, separated by SDS-PAGE, and transferred to nitrocellulose membranes. Densitometry was performed using ImageJ or Image Studio Lite Version5.2 software and normalized to the density of GAPDH.\nMYC expression is implicated in the pathogenesis of a wide range of cancers, including leukemia and lymphoma. […] It was also observed that an increased transcription of genes negatively regulated by MYC in COMPOUND I-treated MV4-11 cells. […] The time course of MYC protein repression in MV4-11 cells paralleled inhibition of MYC gene expression levels detected by RNA-seq. […]"}, "[5]": {"test_system": "H3K27ac at the MYC promoter in MV4-11 cells", "experiment": "ChIP-qPCR for H3K27ac", "format": "cell-based", "conditions": "500 nmol/L", "method": "MV4-11 cells were treated with vehicle DMSO or 500 nmol/L COMPOUND I for 2, 6, or 24 hours and then crosslinked with 1% formaldehyde. Chromatin was extracted by sonication and then incubated with H3K27ac (Active Motif #39133) antibody overnight. The antibody:DNA complexes were isolated with Protein G beads (Invitrogen Dynabeads catalog #10004D) and analyzed by qPCR with primers specific to the MYC promoter (Table 7). H3K27ac enrichment was calculated as fold over input DNA control.\n(§3) Regulation of MYC expression is a complex process that involves MYC transcription, mRNA stability, and protein turnover. ChIP-qPCR analysis for H3K27ac, a well-established marker of active chromatin, was performed to assess transcriptional competency of the MYC gene promoter after treatment with COMPOUND I (FIG. 19D). […] To determine whether COMPOUND I affected MYC mRNA stability, an RNA decay assay was performed on EOL-1 cells."}, "[6]": {"test_system": "MYC mRNA stability in EOL-1 cells", "experiment": "RNA decay assay", "format": "cell-based", "conditions": "500 nmol/L 3 hours, then 1 μmol/L actinomycin D", "method": "Cells were treated for 3 hours with vehicle DMSO or 500 nmol/L COMPOUND I followed by 1 μmol/L actinomycin D. Aliquots of cells were taken before and then every 10 minutes after actinomycin D addition for RNA extraction and cDNA synthesis as for qRT-PCR analysis. Levels of MYC and 28s rRNA were analyzed using specific primers (Table 8) and MYC RNA expression was normalized to 28 s rRNA [2^(28 s Ct value−MYC Ct value)].\nas §3"}}, "data": [{"smiles": "Cc1[nH]c2ccc(F)cc2c1-c1nc2c3cccnc3c3ncccc3c2[nH]1", "note": "[COMPOUND I, 2-(5-fluoro-2-methyl-1H-indol-3-yl)-1H-imidazo[4,5-f][1,10]phenanthroline]", "values": [{"measurement": "sensitivity of BRCA1-het knockin clones vs control", "setting": "[1]", "value": "even more hypersensitive"}, {"measurement": "sensitivity of BRCA1 2-bp knock-in clone", "setting": "[2]", "value": "hypersensitive to both olaparib and COMPOUND I"}, {"measurement": "changes in BIK, BAD, MCL-1", "setting": "[3]; 0.5 μM, 24 h", "value": "None of these changes were detected"}, {"measurement": "induction of apoptosis", "setting": "[3]; concentration that induced apoptosis in Raji sensitive cells", "value": "failed to trigger apoptosis"}, {"measurement": "MYC mRNA and protein levels", "setting": "[4]", "value": "concentration-dependent decrease in both MYC mRNA and protein levels"}, {"measurement": "earliest time a decrease in H3K27ac at the MYC promoter was observed", "setting": "[5]", "value": 2, "unit": "h"}, {"measurement": "MYC mRNA levels in pretreated cells versus vehicle", "setting": "[6]", "value": "clear decrease in MYC mRNA levels"}]}]}
